The source of these data is PubChem BioAssay (NCI).

Among the test systems are A498 renal; CAKI-1 renal; COLO 205 colon; DU-145 prostate; EKVX NSCLC; HOP-62 NSCLC; KM12 colon; NCI-H226 lung; NCI-H460 lung; OVCAR-3 ovarian; OVCAR-4 ovarian; OVCAR-8 ovarian; SF-268 CNS; SNB-75 CNS; CCRF-CEM leukemia.
Common to all, as to assay: growth of human tumour cells (NCI), 48 h

Structures are written as SMILES.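 Following 48 hours of exposure in 96-well plates, responses at five concentrations were used to interpolate endpoints linearly. The concentration for full growth arrest is given as TGI.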

Consider `NC1=NC(=O)[C@H](CSCc2ccccc2)N1C(=O)OCc1ccccc1`, for which the TGI in the experiment with A498 renal, with CAKI-1 renal, with COLO 205 colon, in the experiment on DU-145 prostate, in the experiment with EKVX NSCLC and with HOP-62 NSCLC was over 100 µM in each case. The TGI in the experiment on KM12 colon, in the experiment with NCI-H226 lung, with NCI-H460 lung, with OVCAR-3 ovarian, in the experiment on OVCAR-4 ovarian and in the experiment with OVCAR-8 ovarian was over 100 µM throughout. Further, the TGI in the experiment on SF-268 CNS and in the experiment on SNB-75 CNS was over 100 µM each time.

For the compound `N#Cc1c(-c2ccccc2)cc(Nc2ccc(F)cc2)n2c1nc1ccccc12`, the TGI with A498 renal is 12 µM; in the experiment with CAKI-1 renal, over 100 µM; in the experiment with COLO 205 colon, 2.97 µM; in the experiment on DU-145 prostate, over 100 µM; in the experiment on EKVX NSCLC, over 29.1 µM; with HOP-62 NSCLC it was 40.8 µM. Further, the TGI in the experiment with KM12 colon was over 100 µM; in the experiment with NCI-H226 lung it was over 24 µM; in the experiment with NCI-H460 lung, over 100 µM; in the experiment with OVCAR-3 ovarian it was 19.3 µM; with OVCAR-4 ovarian, over 100 µM; in the experiment on OVCAR-8 ovarian, over 32.7 µM. The TGI in the experiment on SF-268 CNS was over 62.1 µM; with SNB-75 CNS, 6.76 µM.

With `C/C(O)=C/c1nc2sc(C)c(C)c2c(=O)s1`, the TGI with A498 renal, with CAKI-1 renal, in the experiment with CCRF-CEM leukemia, with COLO 205 colon, in the experiment with DU-145 prostate and in the experiment with EKVX NSCLC was over 100 µM throughout. Besides, the TGI in the experiment on HOP-62 NSCLC, with KM12 colon, in the experiment on NCI-H226 lung, in the experiment with OVCAR-3 ovarian, in the experiment on OVCAR-4 ovarian and in the experiment on OVCAR-8 ovarian was over 100 µM each time. Also, the TGI in the experiment with SF-268 CNS and in the experiment with SNB-75 CNS was over 100 µM throughout.

`Nc1nc(SCC(=O)c2ccccc2)nc2nc3c(c(-c4ccccc4)c12)CCCC3`: the TGI in the experiment with A498 renal was 42.9 µM; with CAKI-1 renal, over 100 µM; in the experiment on CCRF-CEM leukemia, over 100 µM; in the experiment on DU-145 prostate, over 100 µM; in the experiment with EKVX NSCLC, over 100 µM; with HOP-62 NSCLC it was over 100 µM. Further, the TGI was over 100 µM in the experiment on KM12 colon; 62.7 µM with NCI-H226 lung; over 100 µM in the experiment with NCI-H460 lung; 94.5 µM in the experiment on OVCAR-3 ovarian; 66.4 µM in the experiment with OVCAR-4 ovarian; 89 µM in the experiment with OVCAR-8 ovarian. In addition, the figures for the TGI in the experiment with SF-268 CNS and in the experiment on SNB-75 CNS were 61.5 µM and 78.6 µM, respectively.

Consider `COC(=O)C(NC(=O)C12CCC(C)(C(=O)O1)C2(C)C)c1cc(C(C)(C)C)c(O)c(C(C)(C)C)c1` (configuration not stated), for which the TGI in the experiment with A498 renal, with CAKI-1 renal, with CCRF-CEM leukemia, in the experiment on COLO 205 colon, in the experiment on DU-145 prostate and in the experiment with EKVX NSCLC was over 100 µM each time. The TGI in the experiment on HOP-62 NSCLC, in the experiment with KM12 colon, in the experiment with NCI-H226 lung, in the experiment with OVCAR-3 ovarian, in the experiment with OVCAR-4 ovarian and with OVCAR-8 ovarian was over 100 µM in each case. The TGI in the experiment with SF-268 CNS and in the experiment on SNB-75 CNS was over 100 µM in each case.

As to `O=c1[nH]nc(Cc2ccc(Cl)cc2)n1Nc1ccccc1`, the TGI in the experiment on A498 renal was over 100 µM; in the experiment on CAKI-1 renal it was over 100 µM; in the experiment with CCRF-CEM leukemia it was over 100 µM; in the experiment on COLO 205 colon, over 100 µM; in the experiment on DU-145 prostate, 27.8 µM; with EKVX NSCLC, over 100 µM. Moreover, the TGI in the experiment on HOP-62 NSCLC, in the experiment with KM12 colon, with NCI-H226 lung, in the experiment with NCI-H460 lung, with OVCAR-3 ovarian and with OVCAR-4 ovarian was over 100 µM each time. In addition, the TGI in the experiment on OVCAR-8 ovarian and in the experiment on SNB-75 CNS was over 100 µM each time.

Consider `CC1=NN(c2ccccc2Cl)C2(C1)SCC(=O)N2c1nc2ccccc2s1` (configuration not stated), for which the TGI in the experiment with A498 renal, in the experiment with CAKI-1 renal, in the experiment with COLO 205 colon, in the experiment on DU-145 prostate, with EKVX NSCLC and with HOP-62 NSCLC was over 100 µM each time. Moreover, the TGI in the experiment on KM12 colon, in the experiment with NCI-H226 lung, in the experiment with NCI-H460 lung, with OVCAR-3 ovarian, in the experiment with OVCAR-4 ovarian and in the experiment with OVCAR-8 ovarian was over 100 µM in each case. Moreover, the TGI in the experiment with SF-268 CNS and with SNB-75 CNS was over 100 µM in each case.

In the case of `CC(=O)N(CCc1ccccc1)C(C)(C#N)c1ccccc1` (configuration not stated), the TGI in the experiment on A498 renal, in the experiment on CAKI-1 renal, in the experiment on CCRF-CEM leukemia, in the experiment with COLO 205 colon, in the experiment with DU-145 prostate and in the experiment with EKVX NSCLC was over 100 µM in each case. For the same compound, the TGI with HOP-62 NSCLC, in the experiment on KM12 colon, in the experiment on NCI-H226 lung, with OVCAR-3 ovarian, in the experiment with OVCAR-4 ovarian and in the experiment with OVCAR-8 ovarian was over 100 µM throughout. Besides, the TGI in the experiment with SF-268 CNS and in the experiment with SNB-75 CNS was over 100 µM each time.
